From PubChem BioAssay AID256 (DTP/NCI, 2004)
Values joined by “and” are separate entries in the source; they are usually repeats but may differ in a detail not shown here. Equal values may be shown once. Inconclusive results and toxic doses are left out. The calls were made as follows: active = survival T/C of 150% or more; inactive = T/C below 125% in these data.

Tested on: CD2F1 mice, L1210 leukemia ip, survival T/C
Test: NCI In Vivo Anticancer Drug Screen. Data for tumor model L1210 Leukemia (intraperitoneal) in CD2F1 (CDF1) mice
Settings: endpoint: mean survival time, higher = longer survival
Procedure, shortened: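 Compound-dosed mice with transplantable tumor versus matched vehicle controls; endpoint ratio T/C reported.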

[1] = dose: 25.0 mg/kg/injection, schedule: Q04DX003 (ip), vehicle: saline with Tween-80
[2] = dose: 100.0 mg/kg/injection, schedule: Q04DX003 (ip), vehicle: saline
[3] = dose: 12.5 mg/kg/injection, schedule: Q01DX005 (ip), vehicle: distilled water + Tween-80
[4] = dose: 25.0 mg/kg/injection, schedule: Q01DX005 (ip), vehicle: distilled water + Tween-80

Measured: T/C

CCC([NH-])(CC)C[NH-].[Cl][Pt+2][Cl]
active: dose: 3.13 mg/kg/injection, schedule: Q04DX003 (ip), vehicle: saline 232 % of control | dose: 6.25 mg/kg/injection, schedule: Q04DX003 (ip), vehicle: saline 208 % of control
inactive: dose: 0.39 mg/kg/injection, schedule: Q04DX003 (ip), vehicle: saline with Tween-80 101 % of control | dose: 0.79 mg/kg/injection, schedule: Q04DX003 (ip), vehicle: saline with Tween-80 102 % of control | dose: 1.56 mg/kg/injection, schedule: Q04DX003 (ip), vehicle: saline with Tween-80 107 % of control | dose: 3.12 mg/kg/injection, schedule: Q04DX003 (ip), vehicle: saline with Tween-80 108 % of control | [1] 111 % of control

CC(=N\O)/C(C)=N/O.CC(=N\O)/C(C)=N/O.CCCC1CC[N-]CC1.CCCC1CC[N-]CC1.CCCC1CC[N-]CC1.CCCC1CC[N-]CC1.[Cl-].[Cl-].[Cl][Rh][Cl].[Rh+3]
inactive: dose: 6.25 mg/kg/injection, schedule: Q01DX009 (ip), vehicle: water 97 % of control | dose: 6.25 mg/kg/injection, schedule: Q04DX003 (ip), vehicle: water 86 % of control | dose: 12.5 mg/kg/injection, schedule: Q04DX003 (ip), vehicle: water 94 % of control | dose: 25.0 mg/kg/injection, schedule: Q01DX009 (ip), vehicle: water 88 % of control | dose: 25.0 mg/kg/injection, schedule: Q04DX003 (ip), vehicle: water 86 % of control

CC(N)CCC(C)(C)O (configuration not stated)
inactive: [2] 92 % of control | dose: 200.0 mg/kg/injection, schedule: Q04DX003 (ip), vehicle: saline 100 % of control

CCCC(=O)OCc1cc(=O)n(C)c2c3c4c(cc12)c(C)cc(=O)n4CO3
inactive: dose: 1.56 mg/kg/injection, schedule: Q01DX009 (ip), vehicle: Klucel (hydroxypropylcellulose) (HPC) 97 % of control | dose: 3.12 mg/kg/injection, schedule: Q01DX009 (ip), vehicle: Klucel (hydroxypropylcellulose) (HPC) 106 % of control and 112 % of control | dose: 6.25 mg/kg/injection, schedule: Q01DX009 (ip), vehicle: Klucel (hydroxypropylcellulose) (HPC) 116 % of control and 105 % of control and 109 % of control | dose: 12.5 mg/kg/injection, schedule: Q01DX009 (ip), vehicle: Klucel (hydroxypropylcellulose) (HPC) 113 % of control and 107 % of control and 110 % of control | dose: 25.0 mg/kg/injection, schedule: Q01DX009 (ip), vehicle: Klucel (hydroxypropylcellulose) (HPC) 117 % of control and 119 % of control and 124 % of control | dose: 50.0 mg/kg/injection, schedule: Q01DX009 (ip), vehicle: Klucel (hydroxypropylcellulose) (HPC) 118 % of control and 124 % of control | dose: 100.0 mg/kg/injection, schedule: Q01DX009 (ip), vehicle: Klucel (hydroxypropylcellulose) (HPC) 96 % of control

NC(N)=N/N=C(\c1ccc(C(F)(F)F)cc1)c1ccc(Cl)c(Cl)c1
inactive: dose: 75.0 mg/kg/injection, schedule: Q01DX001 (ip), vehicle: saline 91 % of control

CC(C)CCNc1ncnc2c1cnn2C
inactive: dose: 25.0 mg/kg/injection, schedule: Q01DX009 (ip), vehicle: saline 97 % of control | dose: 50.0 mg/kg/injection, schedule: Q01DX009 (ip), vehicle: saline 108 % of control | dose: 100.0 mg/kg/injection, schedule: Q01DX009 (ip), vehicle: saline 86 % of control | [2] 116 % of control

CC1C=C(Br)C(=O)C(n2cnc3c(=O)n(C)c(=O)n(C)c32)O1 (configuration not stated)
inactive: [3] 100 % of control | [4] 97 % of control

Cc1ccc(Nc2nc(N)nc3c2ncn3C2OC(CO)C(O)C2O)cc1 (configuration not stated)
inactive: [3] 95 % of control | [4] 90 % of control | dose: 50.0 mg/kg/injection, schedule: Q01DX005 (ip), vehicle: distilled water + Tween-80 98 % of control | dose: 100.0 mg/kg/injection, schedule: Q01DX005 (ip), vehicle: distilled water + Tween-80 108 % of control

O=S(=O)(O)O.[NH-]C(c1ccccc1)C([NH-])c1ccccc1.[Pt+2] (configuration not stated)
active: dose: 12.5 mg/kg/injection, schedule: Q04DX003 (ip), vehicle: saline with Tween-80 192 % of control | [1] 234 % of control and 197 % of control

CCOC(=S)SCC(=O)O
inactive: dose: 100.0 mg/kg/injection, schedule: Q01DX001 (ip), vehicle: saline with Tween-80 92 % of control | dose: 200.0 mg/kg/injection, schedule: Q01DX001 (ip), vehicle: saline with Tween-80 96 % of control

C(=N\Nc1nc2ccccc2s1)/c1ccc2ccccc2n1
inactive: dose: 100.0 mg/kg/injection, schedule: Q04DX003 (ip), vehicle: Klucel (hydroxypropylcellulose) (HPC) 95 % of control | dose: 200.0 mg/kg/injection, schedule: Q04DX003 (ip), vehicle: Klucel (hydroxypropylcellulose) (HPC) 94 % of control | dose: 400.0 mg/kg/injection, schedule: Q04DX003 (ip), vehicle: Klucel (hydroxypropylcellulose) (HPC) 94 % of control

CC(C)(C)CC(C)(C)c1ccc(OCCOc2ccc(S(=O)(=O)O)cc2[N+](=O)[O-])cc1
inactive: dose: 100.0 mg/kg/injection, schedule: Q01DX001 (ip), vehicle: saline 102 % of control | dose: 200.0 mg/kg/injection, schedule: Q01DX001 (ip), vehicle: saline 102 % of control | dose: 400.0 mg/kg/injection, schedule: Q01DX001 (ip), vehicle: saline 98 % of control
